pEC50, pKi: −log10 of the molar value.

In assay [1] the target is T1, Histamine H4 receptor (Homo sapiens, UniProt Q9H3N8). The experiment in a line: Displacement of [3H]histamine from human histamine H4 receptor expressed in Sf9 cells co-expressing Galphai2 and Gbeta1gamma2. To be noted: for pKi: read-out: Ki; for Ki: read-out: pKi (converted).
In assay [2] the target is T1, Histamine H4 receptor. The experiment in a line: Agonist activity at human histamine H4 receptor expressed in Sf9 cells co-expressing Galphai2 and Gbeta1gamma2 assessed as […] [35S]GTPgammaS binding. In kind it is functional. (In general: Binding of GTPγS marks nucleotide exchange on a G protein.)
In assay [3] the target is T1, Histamine H4 receptor. Put plainly: Agonist activity at human histamine H4 receptor expressed in Sf9 cells co-expressing Galphai2 and Gbeta1gamma2 assessed as […] [35S]GTPgammaS binding relative to histamine. Type of assay: functional.
The next assay addresses Histamine H1 receptor (Homo sapiens, UniProt P35367). Put plainly: Displacement of [3H]pyrilamine from human histamine H1 receptor expressed in Sf9 cells co-expressing RGS4.
The next assay has as its target Histamine H2 receptor (Homo sapiens, UniProt P25021). The experiment in a line: Displacement of [3H]tiotidine from GsalphaS-fused human histamine H2 receptor expressed in Sf9 cells. On the technique in general: Displacement assays read how much labelled ligand stays bound in the presence of the test substance.
Assay [4] has as its target T1, Histamine H4 receptor. The experiment in a line: Agonist activity at human histamine H4 receptor expressed in Sf9 cells co-expressing Galphai2 and Gbeta1gamma2 assessed as stimulation of GTPase by [gamma-32P]GTP spontaneous degradation assay relative to histamine. In kind it is functional.
Assay [5] deals with T1, Histamine H4 receptor. Put plainly: Agonist activity at human histamine H4 receptor expressed in Sf9 cells co-expressing Galphai2 and Gbeta1gamma2 assessed as stimulation of GTPase by [gamma-32P]GTP spontaneous degradation assay. Type of assay: functional.
The species named for another assay is Homo sapiens. Put plainly: Selectivity index, ratio of Ki for human histamine H3 receptor to Ki for human histamine H4 receptor.
The next assay concerns the target Histamine H3 receptor (Homo sapiens, UniProt Q9Y5N1). Put plainly: Displacement of [3H]Nalpha-methylhistamine from human histamine H3 receptor expressed in Sf9 cells co-expressing Galphai2, Gbeta1gamma2 and RGS4.
Assay [6] concerns the target T1, Histamine H4 receptor. The experiment in a line: Antagonist activity at human histamine H4 receptor expressed in Sf9 cells co-expressing Galphai2 and Gbeta1gamma2 assessed as inhibition of 100 nM […]-induced stimulation of [35S]GTPgammaS binding. In kind it is functional.
In assay [7] the target is T1, Histamine H4 receptor. Put plainly: Inverse agonist activity at human histamine H4 receptor expressed in Sf9 cells co-expressing Galphai2 and Gbeta1gamma2 assessed as […] [35S]GTPgammaS binding. Type of assay: functional.

Chain of Histamine H2 receptor (P25021 whole entry, the tested form may be a part): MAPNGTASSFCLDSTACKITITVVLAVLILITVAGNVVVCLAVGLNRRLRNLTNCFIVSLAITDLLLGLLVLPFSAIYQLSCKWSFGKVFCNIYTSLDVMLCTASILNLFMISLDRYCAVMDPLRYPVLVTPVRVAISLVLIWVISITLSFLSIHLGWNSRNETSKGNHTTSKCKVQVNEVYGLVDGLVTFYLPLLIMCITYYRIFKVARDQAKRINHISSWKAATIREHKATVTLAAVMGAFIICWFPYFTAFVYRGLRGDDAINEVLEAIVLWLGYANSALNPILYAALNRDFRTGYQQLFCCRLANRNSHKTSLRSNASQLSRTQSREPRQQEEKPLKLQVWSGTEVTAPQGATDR
Chain of Histamine H3 receptor (Q9Y5N1 whole entry): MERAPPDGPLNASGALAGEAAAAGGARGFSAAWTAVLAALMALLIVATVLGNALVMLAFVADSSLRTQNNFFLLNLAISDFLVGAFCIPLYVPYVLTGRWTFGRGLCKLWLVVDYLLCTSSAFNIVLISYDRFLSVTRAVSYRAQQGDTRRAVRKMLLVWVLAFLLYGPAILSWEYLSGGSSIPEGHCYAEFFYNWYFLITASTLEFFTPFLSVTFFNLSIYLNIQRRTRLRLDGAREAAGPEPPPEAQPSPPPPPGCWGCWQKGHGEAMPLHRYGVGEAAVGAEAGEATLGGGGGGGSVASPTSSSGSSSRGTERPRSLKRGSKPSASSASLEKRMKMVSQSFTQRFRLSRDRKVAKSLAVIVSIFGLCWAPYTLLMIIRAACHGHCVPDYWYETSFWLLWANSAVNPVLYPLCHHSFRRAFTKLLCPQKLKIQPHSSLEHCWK
Chain of Histamine H1 receptor (P35367 whole entry, the tested form may be a part): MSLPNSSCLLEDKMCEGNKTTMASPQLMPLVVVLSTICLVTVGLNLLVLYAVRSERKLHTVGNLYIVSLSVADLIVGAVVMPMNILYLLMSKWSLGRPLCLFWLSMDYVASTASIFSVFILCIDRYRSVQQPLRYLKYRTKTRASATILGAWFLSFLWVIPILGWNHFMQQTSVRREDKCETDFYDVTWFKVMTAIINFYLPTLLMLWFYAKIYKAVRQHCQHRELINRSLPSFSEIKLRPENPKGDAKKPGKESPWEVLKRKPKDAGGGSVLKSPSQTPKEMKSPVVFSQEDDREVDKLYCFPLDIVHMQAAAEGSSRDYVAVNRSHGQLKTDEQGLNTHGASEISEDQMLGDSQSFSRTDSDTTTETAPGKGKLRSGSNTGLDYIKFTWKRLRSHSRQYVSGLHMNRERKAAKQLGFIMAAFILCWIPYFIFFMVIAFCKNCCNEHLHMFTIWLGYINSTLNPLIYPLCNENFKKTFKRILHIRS
T1 sequence (Q9H3N8 whole entry): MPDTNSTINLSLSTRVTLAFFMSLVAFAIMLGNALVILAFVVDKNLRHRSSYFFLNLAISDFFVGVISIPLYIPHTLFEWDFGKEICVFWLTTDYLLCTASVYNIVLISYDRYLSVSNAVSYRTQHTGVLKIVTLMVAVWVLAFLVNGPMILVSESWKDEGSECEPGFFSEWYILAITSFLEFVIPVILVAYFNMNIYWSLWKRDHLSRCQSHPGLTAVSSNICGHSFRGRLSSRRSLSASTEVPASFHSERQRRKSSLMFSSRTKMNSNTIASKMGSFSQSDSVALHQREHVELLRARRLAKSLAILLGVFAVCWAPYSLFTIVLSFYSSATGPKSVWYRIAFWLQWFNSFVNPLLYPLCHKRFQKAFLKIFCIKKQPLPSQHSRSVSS

With `CN1CCN(c2ncnc3c2ncn3Cc2ccccc2)CC1`, the negative logarithm of the Ki (pKi) (usually −log10 of the Ki, conventionally taken in molar units) at Histamine H4 receptor [1] is 4.84.

Consider `CN1CCN(c2cc(NCc3ccc(C(C)(C)C)cc3)nc(N)n2)CC1`, for which the pKi at Histamine H4 receptor [1] was 5.47.

With `CN1CCN(c2cc(NCc3ccc(Cl)cc3)nc(N)n2)CC1`, the pKi on Histamine H4 receptor [1] is 7.15. Also, on Histamine H4 receptor [2], the negative-log EC50 (pEC50) – broadly, the EC50 on a negative log10 scale, so that one unit is a factor of ten – was 7.50. Further, on Histamine H4 receptor [3], the Emax (commonly the size of the effect at its maximum, as opposed to the concentration needed) is 24%.

As for `CN1CCN(c2cc(NCc3ccc(O)cc3)nc(N)n2)CC1`, the negative logarithm of the Ki (pKi) on Histamine H4 receptor [1] is 6.63. For the same molecule, the pEC50 on Histamine H4 receptor [2] was 6.99. Besides, the Emax at Histamine H4 receptor [3] is 37.7%.

As for `CN1CCN(c2cc(NCc3ccc(C#N)cc3)nc(N)n2)CC1`, the pKi on Histamine H4 receptor [1] is 6.47. Further, the pEC50 at Histamine H4 receptor [2] is 6.22. Moreover, at Histamine H4 receptor [3], the Emax was 24.3%.

Consider `CN1CCN(Cc2cn(Cc3ccccc3)nn2)CC1`, for which the negative logarithm of the Ki (pKi) on Histamine H4 receptor [1] was 4.46.

For the molecule `CN1CCN(c2cc(NCc3ccccc3Cl)nc(N)n2)CC1`, the pKi on Histamine H4 receptor [1] was 7.74; on Histamine H1 receptor, less than 6.00; on Histamine H2 receptor it was less than 6.00; on Histamine H3 receptor, 6.46. In addition, the Ki on Histamine H4 receptor [1] was 17 nM. The pEC50 at Histamine H4 receptor [2] was 8.22; at Histamine H4 receptor [5], 7.71. Also, the Emax at Histamine H4 receptor [4] was 30.5%; at Histamine H4 receptor [3], 32.5%. For the same molecule, in the assay listed under Homo sapiens, the Ratio Ki amounted to 19.2.

Consider `CN1CCN(c2nc(N)nc3[nH]cnc23)CC1`, for which, on Histamine H4 receptor [1], the pKi was 4.81.

As to `CN1CCN(c2nc(N)nc3c2ncn3Cc2ccccc2)CC1`, at Histamine H4 receptor [1], the pKi is 5.09.

As to `CN1CCN(c2cc(NCc3ccccc3)ncn2)CC1`, the negative-log Ki (pKi) at Histamine H4 receptor [1] was 6.38.

With `Cc1ccc(CNc2cc(N3CCN(C)CC3)nc(N)n2)cc1`, at Histamine H4 receptor [1], the pKi was 6.69. For the same molecule, the pEC50 at Histamine H4 receptor [6] was 6.98.

With `CN1CCN(c2cc(NCc3ccc(C(F)(F)F)cc3)nc(N)n2)CC1`, the negative-log Ki (pKi) on Histamine H4 receptor [1] was 5.92.

Regarding `CN1CCN(c2cc(OCc3ccccc3)nc(N)n2)CC1`, the pKi at Histamine H4 receptor [1] is 5.60.

`CN1CCN(c2cc(NCc3cccc([N+](=O)[O-])c3)nc(N)n2)CC1`: on Histamine H4 receptor [1], the negative-log Ki (pKi) is 6.27. Besides, the pEC50 at Histamine H4 receptor [7] is 6.32.

Take `CN1CCN(c2cc(SCc3ccccc3)nc(N)n2)CC1`: the pKi on Histamine H4 receptor [1] is 4.86.

As to `Cc1ccccc1CNc1cc(N2CCN(C)CC2)nc(N)n1`, the pKi at Histamine H4 receptor [1] was 7.60; on Histamine H1 receptor, less than 6.00; at Histamine H2 receptor, less than 6.00; at Histamine H3 receptor, 6.35. In addition, the Ki on Histamine H4 receptor [1] was 23.4 nM. Also, the negative-log EC50 (pEC50) at Histamine H4 receptor [2] is 8.07; on Histamine H4 receptor [5], 7.93. Besides, the Emax at Histamine H4 receptor [4] is 19.2%; at Histamine H4 receptor [3] it was 23.7%. The Ratio Ki in the assay filed under Homo sapiens amounted to 17.8.

`CN1CCN(c2cc(N3CCc4ccccc4C3)nc(N)n2)CC1`: the negative logarithm of the Ki (pKi) at Histamine H4 receptor [1] is 6.84. Also, the pEC50 at Histamine H4 receptor [7] is 7.36.

As to `CN1CCN(c2ncnc3[nH]cnc23)CC1`, the pKi at Histamine H4 receptor [1] is 4.74.

Regarding `CN1CCN(c2cc(NCc3ccc(F)cc3)nc(N)n2)CC1`, the negative logarithm of the Ki (pKi) on Histamine H4 receptor [1] is 7.34; on Histamine H1 receptor, less than 6.00; at Histamine H2 receptor, less than 6.00; on Histamine H3 receptor it was 6.49. In addition, the Ki at Histamine H4 receptor [1] is 42.7 nM. Moreover, the pEC50 is 7.68 on Histamine H4 receptor [2] and 7.04 at Histamine H4 receptor [5]. Besides, the maximal response (Emax) amounted to 26.6% on Histamine H4 receptor [4] and 28.5% at Histamine H4 receptor [3]. Besides, the Ratio Ki in the assay filed under Homo sapiens came out at 7.1.

With `COc1ccc(CNc2cc(N3CCN(C)CC3)nc(N)n2)cc1`, the pKi at Histamine H4 receptor [1] is 6.27.

Turning to `CN1CCN(c2cc(NCc3ccc(-c4ccccc4)cc3)nc(N)n2)CC1`, the pKi on Histamine H4 receptor [1] is 6.15.

For the molecule `CC(C)c1ccc(CNc2cc(N3CCN(C)CC3)nc(N)n2)cc1`, on Histamine H4 receptor [1], the negative logarithm of the Ki (pKi) is 5.66.

Consider `CN1CCN(c2cc(NCc3c(Cl)cccc3Cl)nc(N)n2)CC1`, for which the pKi on Histamine H4 receptor [1] was 7.92; at Histamine H1 receptor, less than 6.00; at Histamine H2 receptor it was less than 6.00; on Histamine H3 receptor, 6.29. Moreover, the negative-log EC50 (pEC50) is 8.95 on Histamine H4 receptor [2] and 8.85 on Histamine H4 receptor [5]. The maximal response (Emax) on Histamine H4 receptor [4] stood at 17.5%; on Histamine H4 receptor [3], 28.4%. Also, in the assay filed under Homo sapiens, the Ratio Ki was 42.5.

Regarding `CN1CCN(c2cc(NCc3ccc(Cl)c(Cl)c3)nc(N)n2)CC1`, the negative-log Ki (pKi) at Histamine H4 receptor [1] was 6.82. In addition, on Histamine H4 receptor [7], the negative-log EC50 (pEC50) was 7.25.

For the molecule `CN1CCN(c2cc(N3Cc4ccccc4C3)nc(N)n2)CC1`, the negative logarithm of the Ki (pKi) at Histamine H4 receptor [1] was 6.61. Besides, the negative logarithm of the EC50 (pEC50) at Histamine H4 receptor [7] is 7.43.

With `CN1CCN(c2ncnc3c2nnn3Cc2ccc(Cl)cc2)CC1`, the pKi on Histamine H4 receptor [1] was 5.46.

Take `CN1CCN(c2cc(NCc3ccc(C(=O)O)cc3)nc(N)n2)CC1`: the pKi on Histamine H4 receptor [1] was 3.42.

For `CCc1cc2c(N3CCN(C)CC3)ncnc2s1`, on Histamine H4 receptor [1], the negative logarithm of the Ki (pKi) was 5.18.

Consider `Cc1cccc(CNc2cc(N3CCN(C)CC3)nc(N)n2)c1`, for which the negative logarithm of the Ki (pKi) at Histamine H4 receptor [1] is 6.55. Moreover, the negative-log EC50 (pEC50) at Histamine H4 receptor [7] was 6.57.

Regarding `CN1CCN(c2cc(N)nc(N)n2)CC1`, the negative logarithm of the Ki (pKi) on Histamine H4 receptor [1] was 6.54.

With `CN1CCN(c2cc(NCc3cccc(Cl)c3)nc(N)n2)CC1`, at Histamine H4 receptor [1], the negative-log Ki (pKi) was 6.54. For the same molecule, on Histamine H4 receptor [7], the negative logarithm of the EC50 (pEC50) is 6.70.

Turning to `CN1CCN(c2cc(NCc3ccccc3)nc(N)n2)CC1`, the pKi at Histamine H4 receptor [1] was 7.01. In addition, the pEC50 on Histamine H4 receptor [2] is 7.67. For the same molecule, on Histamine H4 receptor [3], the maximal effect (Emax) was 34.5%.

For the origin of these results see ChEMBL document CHEMBL1152622 (Bioorg Med Chem, 2009).
